Test results published in US9725449B2, “Tricyclic compounds as anticancer agents” (BRISTOL-MYERS SQUIBB COMPANY, priority 2015, dated 2017).

The compounds below were run against BRD4 (Homo sapiens, UniProt O60885) (assay: Time resolved fluorescence resonance energy transfer (TR-FRET) binding assay, bromodomain BRD4). Settings: one of the FRET assays described; read-out: FRET BRD4 IC50.

Row | SMILES | IC50
1 | Cc1nnn(C)c1-c1cnc2c3ccnc(N4CCOCC4)c3n([C@H](c3ccccc3)C3CCOCC3)c2c1 [Example 7, 5-(Dimethyl-1H-1,2,3-triazol-5-yl)-10-(morpholin-4-yl)-8-[(S)-oxan-4-yl(phenyl)methyl]-3,8,11-triazatricyclo[7.4.0.0^2,^7]trideca-1(13),2(7),3,5,9,11-hexaene] | < 0.01 µM
2 | Cc1nnn(C)c1-c1cnc2c3ccnc(N4CCN(C)CC4)c3n([C@H](c3ccccc3)C3CCOCC3)c2c1 [Example 8, 5-(Dimethyl-1H-1,2,3-triazol-5-yl)-10-(4-methylpiperazin-1-yl)-8-[(S)-oxan-4-yl(phenyl)methyl]-3,8,11-triazatricyclo[7.4.0.0^2,^7]trideca-1(13),2(7),3,5,9,11-hexaene] | < 0.01 µM
3 | COCCNc1nccc2c3ncc(-c4c(C)nnn4C)cc3n([C@H](c3ccccc3)C3CCOCC3)c12 [Example 9, 5-(Dimethyl-1H-1,2,3-triazol-5-yl)-N-(2-methoxyethyl)-8-[(S)-oxan-4-yl(phenyl)methyl]-3,8,11-triazatricyclo[7.4.0.0^2,^7]trideca-1(13),2(7),3,5,9,11-hexaen-10-amine] | < 0.01 µM
4 | Cc1nnn(C)c1-c1cnc2c3ccnc(OCCN(C)C)c3n([C@H](c3ccccc3)C3CCOCC3)c2c1 [Example 10, (2-{[5-(Dimethyl-1H-1,2,3-triazol-5-yl)-8-[(S)-oxan-4-yl(phenyl)methyl]-3,8,11-triazatricyclo[7.4.0.0^2,^7]trideca-1(13),2(7),3,5,9,11-hexaen-10-yl]oxy}ethyl)dimethylamine] | < 0.01 µM
5 | Cc1nnn(C)c1-c1cnc2c3ccnc(NCCO)c3n([C@H](c3ccccc3)C3CCOCC3)c2c1 [Example 11, 2-{[5-(Dimethyl-1H-1,2,3-triazol-5-yl)-8-[(S)-oxan-4-yl(phenyl)methyl]-3,8,11-triazatricyclo[7.4.0.0^2,^7]trideca-1(13),2(7),3,5,9,11-hexaen-10-yl]amino}ethan-1-ol] | < 0.01 µM
6 | COc1ccc2c3ncc(-c4c(C)nnn4C)cc3n([C@H](c3ccccc3)C3CCOCC3)c2n1 [Example 12, 5-(Dimethyl-1H-1,2,3-triazol-5-yl)-11-methoxy-8-[(S)-oxan-4-yl(phenyl)methyl]-3,8,10-triazatricyclo[7.4.0.0^2,^7]trideca-1(13),2(7),3,5,9,11-hexaene] | < 0.01 µM
7 | COc1nccc2c3ncc(-c4c(C)nnn4C)cc3n([C@H](c3ccccc3)C3CCOCC3)c12 [Example 13, 5-(Dimethyl-1H-1,2,3-triazol-5-yl)-10-methoxy-8-[(S)-oxan-4-yl(phenyl)methyl]-3,8,11-triazatricyclo[7.4.0.0^2,^7]trideca-1(13),2(7),3,5,9,11-hexaene] | < 0.001 µM
8 | Cc1nnn(C)c1-c1cnc2c3ccc(Cl)nc3n([C@H](c3ccccc3)C3CCOCC3)c2c1 [Example 14, 11-Chloro-5-(dimethyl-1H-1,2,3-triazol-5-yl)-8-[(S)-oxan-4-yl(phenyl)methyl]-3,8,10-triazatricyclo[7.4.0.0^2,^7]trideca-1(9),2(7),3,5,10,12-hexaene] | < 0.01 µM
9 | Cc1nnn(C)c1-c1cnc2c3ccc(Cl)nc3n([C@@H](c3ccccc3)C3CCOCC3)c2c1 [Example 15, 11-Chloro-5-(dimethyl-1H-1,2,3-triazol-5-yl)-8-[(R)-oxan-4-yl(phenyl)methyl]-3,8,10-triazatricyclo[7.4.0.0^2,^7]trideca-1(9),2(7),3,5,10,12-hexaene] | < 1.5 µM
10 | Cc1nnn(C)c1-c1cnc2c3ccnc(F)c3n([C@H](c3ccccc3F)C3CCOCC3)c2c1 [Example 29, 5-(Dimethyl-1H-1,2,3-triazol-5-yl)-10-fluoro-8-[(S)-(2-fluorophenyl)(oxan-4-yl)methyl]-3,8,11-triazatricyclo[7.4.0.0^2,^7]trideca-1(13),2(7),3,5,9,11-hexaene] | < 0.001 µM
11 | COc1nccc2c1c1ncc(-c3c(C)nnn3C)cc1n2[C@H](c1ccccc1F)C1CCOCC1 [Example 30, 5-(Dimethyl-1H-1,2,3-triazol-5-yl)-8-[(S)-(2-fluorophenyl)(oxan-4-yl)methyl]-13-methoxy-3,8,12-triazatricyclo[7.4.0.0^2,^7]trideca-1(9),2(7),3,5,10,12-hexaene] | < 0.001 µM
12 | CSc1nccc2c3ncc(-c4c(C)nnn4C)cc3n([C@H](c3ccccc3F)C3CCOCC3)c12 [Example 31, 5-(Dimethyl-1H-1,2,3-triazol-5-yl)-8-[(S)-(2-fluorophenyl)(oxan-4-yl)methyl]-10-(methylsulfanyl)-3,8,11-triazatricyclo[7.4.0.0^2,^7]trideca-1(13),2(7),3,5,9,11-hexaene] | < 0.01 µM
13 | Cc1nnn(C)c1-c1cnc2c3cc(S(C)(=O)=O)ncc3n([C@H](c3ccccc3F)C3CCOCC3)c2c1 [Example 32, 5-(Dimethyl-1H-1,2,3-triazol-5-yl)-8-[(S)-(2-fluorophenyl)(oxan-4-yl)methyl]-12-methanesulfonyl-3,8,11-triazatricyclo[7.4.0.0^2,^7]trideca-1(13),2(7),3,5,9,11-hexaene] | < 0.01 µM
14 | Cc1nnn(C)c1-c1cnc2c3c(S(C)(=O)=O)nccc3n([C@H](c3ccccc3)C3CCOCC3)c2c1 [Example 33, 5-(Dimethyl-1H-1,2,3-triazol-5-yl)-13-methanesulfonyl-8-[(S)-oxan-4-yl(phenyl)methyl]-3,8,12-triazatricyclo[7.4.0.0^2,^7]trideca-1(13),2(7),3,5,9,11-hexaene] | < 0.001 µM
15 | Cc1nnn(C)c1-c1cnc2c3cncc(Cl)c3n([C@H](c3ccccc3)C3CCOCC3)c2c1 [Example 34, 10-Chloro-5-(dimethyl-1H-1,2,3-triazol-5-yl)-8-[(S)-oxan-4-yl(phenyl)methyl]-3,8,12-triazatricyclo[7.4.0.0^2,^7]trideca-1(13),2(7),3,5,9,11-hexaene] | < 0.01 µM
16 | Cc1nnn(C)c1-c1cnc2c3cnccc3n([C@H](c3ccccc3)C3CCOCC3)c2c1 [Example 35, 5-(Dimethyl-1H-1,2,3-triazol-5-yl)-8-[(S)-oxan-4-yl(phenyl)methyl]-3,8,12-triazatricyclo[7.4.0.0^2,^7]trideca-1(13),2(7),3,5,9,11-hexaene] | < 0.01 µM
17 | Cc1nnn(C)c1-c1cnc2c3c(Cl)ncc(Cl)c3n([C@H](c3ccccc3)C3CCOCC3)c2c1 [Example 36, 10,13-Dichloro-5-(dimethyl-1H-1,2,3-triazol-5-yl)-8-[(S)-oxan-4-yl(phenyl)methyl]-3,8,12-triazatricyclo[7.4.0.0^2,^7]trideca-1(13),2(7),3,5,9,11-hexaene] | < 0.01 µM
18 | Cc1nnn(C)c1-c1cnc2c3c(F)ncc(Cl)c3n([C@H](c3ccccc3)C3CCOCC3)c2c1 [Example 37, 10-Chloro-5-(dimethyl-1H-1,2,3-triazol-5-yl)-13-fluoro-8-[(S)-oxan-4-yl(phenyl)methyl]-3,8,12-triazatricyclo[7.4.0.0^2,^7]trideca-1(13),2(7),3,5,9,11-hexaene] | < 0.01 µM
19 | COc1ncc(Br)c2c1c1ncc(-c3c(C)nnn3C)cc1n2[C@H](c1ccccc1)C1CCOCC1 [Example 38, 10-Bromo-5-(dimethyl-1H-1,2,3-triazol-5-yl)-13-methoxy-8-[(S)-oxan-4-yl(phenyl)methyl]-3,8,12-triazatricyclo[7.4.0.0^2,^7]trideca-1(13),2(7),3,5,9,11-hexaene] | < 0.01 µM
20 | COc1ncc(Cl)c2c1c1ncc(-c3c(C)nnn3C)cc1n2[C@H](c1ccccc1)C1CCOCC1 [Example 39, 10-Chloro-5-(dimethyl-1H-1,2,3-triazol-5-yl)-13-methoxy-8-[(S)-oxan-4-yl(phenyl)methyl]-3,8,11-triazatricyclo[7.4.0.0^2,^7]trideca-1(13),2(7),3,5,9,11-hexaene] | < 0.01 µM
21 | COc1ncc(Cl)c2c1c1ncc(-c3c(C)nnn3C)cc1n2[C@H](c1ccccc1)C1CCOCC1 [Example 40, 10-Chloro-5-(dimethyl-1H-1,2,3-triazol-5-yl)-13-methoxy-8-[(S)-oxan-4-yl(phenyl)methyl]-3,8,12-triazatricyclo[7.4.0.0^2,^7]trideca-1(13),2(7),3,5,9,11-hexaene] | < 0.001 µM
22 | Cc1nnn(C)c1-c1cnc2c3c(N(C)C)ncc(Cl)c3n([C@H](c3ccccc3)C3CCOCC3)c2c1 [Example 41, 10-Chloro-5-(dimethyl-1H-1,2,3-triazol-5-yl)-N,N-dimethyl-8-[(S)-oxan-4-yl(phenyl)methyl]-3,8,12-triazatricyclo[7.4.0.0^2,^7]trideca-1(13),2(7),3,5,9,11-hexaen-13-amine] | < 0.001 µM
23 | Cc1nnn(C)c1-c1cnc2c3c(S(C)(=O)=O)ncc(Cl)c3n([C@H](c3ccccc3)C3CCOCC3)c2c1 [Example 42, 10-Chloro-5-(dimethyl-1H-1,2,3-triazol-5-yl)-13-methanesulfonyl-8-[(S)-oxan-4-yl(phenyl)methyl]-3,8,12-triazatricyclo[7.4.0.0^2,^7]trideca-1(13),2(7),3,5,9,11-hexaene] | < 0.01 µM
24 | CCOc1ncc(Cl)c2c1c1ncc(-c3c(C)nnn3C)cc1n2[C@H](c1ccccc1)C1CCOCC1 [Example 43, 10-Chloro-5-(dimethyl-1H-1,2,3-triazol-5-yl)-13-ethoxy-8-[(S)-oxan-4-yl(phenyl)methyl]-3,8,12-triazatricyclo[7.4.0.0^2,^7]trideca-1(13),2(7),3,5,9,11-hexaene] | < 0.001 µM
25 | Cc1nnn(C)c1-c1cnc2c3c(NCC4CC4)ncc(Cl)c3n([C@H](c3ccccc3)C3CCOCC3)c2c1 [Example 44, 10-Chloro-N-(cyclopropylmethyl)-5-(dimethyl-1H-1,2,3-triazol-5-yl)-8-[(S)-oxan-4-yl(phenyl)methyl]-3,8,12-triazatricyclo[7.4.0.0^2,^7]trideca-1(13),2(7),3,5,9,11-hexaen-13-amine] | < 0.01 µM
26 | COc1ncc(S(C)(=O)=O)c2c1c1ncc(-c3c(C)noc3C)cc1n2[C@H](c1ccccc1)C1CCOCC1 [Example 45, 5-(Dimethyl-1,2-oxazol-4-yl)-10-methanesulfonyl-13-methoxy-8-[(S)-oxan-4-yl(phenyl)methyl]-3,8,12-triazatricyclo[7.4.0.0^2,^7]trideca-1(13),2(7),3,5,9,11-hexaene] | < 0.001 µM
